Literature values as cited in the PKSmart pharmacokinetics tables (Seal et al. 2025).
Where a SMILES comes first, the peptide text is derived from it. Bridges are numbered along the chain shown (N, C = ends).

Assay: not given per row; by the article one of three: Lombardo et al. 2013, J Clin Pharmacol 53:178, doi 10.1177/0091270012440282; 'New Drugs at FDA', novel drug approvals for 2021 and 2022 (the article's reference 43); Yap, Li, Chen 2006, J Mol Graph Model 24:383, doi 10.1016
Settings: human; in vivo

Structure (SMILES) | half-life | clearance | Vd
CCCCC1(CCCC)CS(=O)(=O)c2ccc(N(C)C)cc2[C@@H](c2ccc(OCc3ccc(C[N+]45CCN(CC4)CC5)cc3)cc2)[C@H]1O | 1.6 h | – | –
COc1ccc(C(=O)Nc2ccccc2CC[C@@H]2CCCCN2C)cc1 | – | 177 mL/min/kg | –
CC1(C)C(=CC=C2CCCC(C=CC3=[N+](CCCCS(=O)(=O)O)c4ccc(S(=O)(=O)[O-])cc4C3(C)C)=C2Oc2ccc(CC(NC(=O)c3ccc(NCc4cnc5nc(N)[nH]c(=O)c5n4)cc3)C(=O)O)cc2)N(CCCCS(=O)(=O)O)c2ccc(S(=O)(=O)O)cc21 (stereo unspecified) | 0.44 h | – | 0.29 L/kg
C[C@@H]1COc2c(N3CCN(C)CC3)c(F)cc3c(=O)c(C(=O)O)cn1c23 | – | 2.58 mL/min/kg | –
CCC1=C(C)CN(C(=O)NCCc2ccc(S(=O)(=O)NC(=O)NC3CCC(C)CC3)cc2)C1=O (stereo unspecified) | – | 0.76 mL/min/kg | –
COc1ccc(-n2nccn2)c(C(=O)N2CCC[C@@]2(C)c2nc3c(C)c(Cl)ccc3[nH]2)c1 | 8 h | – | 0.52 L/kg
COc1cc2c(cc1OC)CN(C(=O)C(C)NC(CCc1ccccc1)C(=O)O)C(C(=O)O)C2 (stereo unspecified) | – | 3.31 mL/min/kg | –
CCN(CC)c1cc(C)n2ncnc2n1 | – | 3.79 mL/min/kg | –
O=c1[nH]c(=O)n([C@@H]2CCCO2)cc1F | – | 0.98 mL/min/kg | –
COC(=O)C(c1ccccc1)[C@@H]1CCCCN1 (stereo partly specified) | – | 9.44 mL/min/kg | –
NCCCCC(NC(=O)C1CCCN1C(=O)C1CSSCC(NC(=O)CNC(=O)CNC(=O)CN)C(=O)NC(Cc2ccc(O)cc2)C(=O)NC(Cc2ccccc2)C(=O)NC(CCC(N)=O)C(=O)NC(CC(N)=O)C(=O)N1)C(=O)NCC(N)=O (stereo unspecified) (H-GGGCYFQNCPKG-NH2; disulfide 4-9; configuration not given here) | 0.9 h | 7.61 mL/min/kg | 0.11 L/kg
C[C@@H]1[C@H](c2c(F)ccc(F)c2F)CC(NC(=O)c2cnc3c(c2)C[C@@]2(C3)C(=O)Nc3ncccc32)C(=O)N1CC(F)(F)F (stereo partly specified) | 11 h | 5.28 mL/min/kg | 4.87 L/kg
C[C@@H](CN(C)C)CN1c2ccccc2CCc2ccccc21 | – | 15.9 mL/min/kg | –
COCc1c(C(=O)OC(C)C)ncc2[nH]c3ccc(OCc4ccccc4)cc3c12 | – | 13 mL/min/kg | –
CCOC(=O)C(Cc1ccc(F)cc1)NC(=O)C(N)Cc1ccc(N(CCCl)CCCl)cc1 (stereo unspecified) | 0.04 h | 192 mL/min/kg | 0.58 L/kg
O=C(c1ccc(NS(=O)(=O)c2cccc3cccnc23)cc1)N1CCN(CC2CC2)CC1 | 4 h | 3.47 mL/min/kg | 0.71 L/kg
O=C1Nc2ccc(Cl)cc2[C@@](C#CC2CC2)(C(F)(F)F)O1 | – | 3.1 mL/min/kg | –
O=C(CO)NCCCOc1cccc(CN2CCCCC2)c1 | – | 6.73 mL/min/kg | –
CCCN[C@@H]1CCc2nc(N)sc2C1 | – | 8.2 mL/min/kg | –
C[C@@H](CCc1ccc(O)cc1)NCCc1ccc(O)c(O)c1 | – | 59 mL/min/kg | –

Structure (SMILES) | half-life | clearance | Vd
CS(=O)(=O)c1ccc(Oc2cc(F)cc(C#N)c2)c2c1[C@H](O)[C@H](F)[C@@H]2F | 14 h | 2.03 mL/min/kg | 2.17 L/kg
CC(C(=O)O)c1ccc(-c2ccccc2)c(F)c1 (stereo unspecified) | – | 0.35 mL/min/kg | –
O=C(CCC(C(=O)O)N1CCN(C(CCC(=O)NCC(O)CO)C(=O)O)Cc2cccc(n2)CN(C(CCC(=O)NCC(O)CO)C(=O)O)CC1)NCC(O)CO (stereo unspecified) | 1.5 h | 1.67 mL/min/kg | 0.22 L/kg
O=C(O)CN(CCN(CC(=O)O)CC(=O)O)CC(=O)O | – | 1.09 mL/min/kg | –
CN1CCN(c2ccc(Nc3ncc4cc5n(c4n3)C3(CCCCC3)CNC5=O)nc2)CC1 | 14 h | 41.7 mL/min/kg | 18.8 L/kg
CC(C)(C)NC[C@@H](O)COc1nsnc1N1CCOCC1 | – | 8.1 mL/min/kg | –
CCc1ccc(CCOc2ccc(Cc3sc(=O)[nH]c3O)cc2)nc1 | – | 1.43 mL/min/kg | –
COc1cccc2c1C(=O)c1c(O)c3c(c(O)c1C2=O)C[C@](O)(C(=O)CO)C[C@@H]3O[C@@H]1C[C@H](N)[C@@H](O)[C@H](C)O1 | – | 16.5 mL/min/kg | –
CCCCC1(CCCC)CN(c2ccccc2)c2cc(SC)c(OCC(=O)NC(C(=O)NC(CC)C(=O)O)c3ccc(O)cc3)cc2S(=O)(=O)N1 (stereo unspecified) | 2.36 h | – | –
COc1cc2c(cc1OC)C(=O)C(CC1CCN(Cc3ccccc3)CC1)C2 (stereo unspecified) | – | 2.53 mL/min/kg | –
CN(C)CCC[C@]1(c2ccc(F)cc2)OCc2cc(C#N)ccc21 | – | 5.21 mL/min/kg | –
CON=C(C(=O)NC1C(=O)N2C(C(=O)O)=CCS[C@H]12)c1csc(=N)[nH]1 (stereo partly specified) | – | 1.79 mL/min/kg | –
O[P+](O)(O)C(Cl)(Cl)[P+](O)(O)O | – | 2.2 mL/min/kg | –
COCC(=O)Nc1c(I)c(C(=O)NC[C@H](O)CO)c(I)c(C(=O)N(C)C[C@H](O)CO)c1I | – | 1.53 mL/min/kg | –
C[C@@H]1CCC[C@@H](C)N1CCC[C@@](O)(c1ccccc1)c1ccccn1 | – | 2.34 mL/min/kg | –
CN[C@H](C)[C@H](O)c1ccccc1 | – | 7.33 mL/min/kg | –
CCCCCc1cc(O)c2c(c1)OC(C)(C)[C@H]1CCC(C)=C[C@H]21 | – | 3.33 mL/min/kg | –
CC[C@]1(C)CC(=O)NC1=O | – | 0.19 mL/min/kg | –
C[C@H]1CN(c2cc3c(cc2F)c(=O)c(C(=O)O)cn3-c2ccc(F)cc2F)CCN1 | – | 3.19 mL/min/kg | –

Same assay, conditions: human; plasma

Structure (SMILES) | fraction unbound
CC(C)Nc1nc2cc(Cl)c(Cl)cc2n1[C@H]1O[C@@H](CO)[C@H](O)[C@@H]1O | 0.02
C1=C/COCc2cc(ccc2OCCN2CCCC2)Nc2nccc(n2)-c2cccc(c2)COC/1 | 0.01
COC(=O)C(c1ccccc1)C1CCCCN1C(=O)OC[n+]1cccc(C(=O)NC(CO)C(=O)[O-])c1 (stereo unspecified) | 0.44
O=C(O)CCC(NC(=O)NC(CCCCNC(=O)C(Cc1ccc2ccccc2c1)NC(=O)C1CCC(CNC(=O)CN2CCN(CC(=O)O)CCN(CC(=O)O)CCN(CC(=O)O)CC2)CC1)C(=O)O)C(=O)O (stereo unspecified) | 0.35
NC(=O)c1ccc2c(c1O)[C@]13CCN(CC4CC4)[C@H](C2)[C@]1(O)CCC(=O)C3 | 0.72
C=CC(=O)Nc1cc(Nc2ncc(C(=O)OC(C)C)c(-c3cn(C)c4ccccc34)n2)c(OC)cc1N(C)CCN(C)C | 0.01
CNCc1cc(-c2ccccc2F)n(S(=O)(=O)c2cccnc2)c1 | 0.14
[2H]C([2H])([2H])NC(=O)c1nnc(NC(=O)C2CC2)cc1Nc1cccc(-c2ncn(C)n2)c1OC | 0.14
Cc1ccc(NC(=O)C2CCCN(C(=O)c3c(C)cccc3F)[C@H]2c2ccc(NC3CCCC3)cc2)cc1C(F)(F)F (stereo partly specified) | 0.01
CCCCC1(CCCC)CS(=O)(=O)c2ccc(N(C)C)cc2[C@@H](c2ccc(OCc3ccc(C[N+]45CCN(CC4)CC5)cc3)cc2)[C@H]1O | 0.09
COc1ccc(-n2nccn2)c(C(=O)N2CCC[C@@]2(C)c2nc3c(C)c(Cl)ccc3[nH]2)c1 | 0.01
C[C@@H]1[C@H](c2c(F)ccc(F)c2F)CC(NC(=O)c2cnc3c(c2)C[C@@]2(C3)C(=O)Nc3ncccc32)C(=O)N1CC(F)(F)F (stereo partly specified) | 0.05
O=C(c1ccc(NS(=O)(=O)c2cccc3cccnc23)cc1)N1CCN(CC2CC2)CC1 | 0.02
CS(=O)(=O)c1ccc(Oc2cc(F)cc(C#N)c2)c2c1[C@H](O)[C@H](F)[C@@H]2F | 0.55
O=C(CCC(C(=O)O)N1CCN(C(CCC(=O)NCC(O)CO)C(=O)O)Cc2cccc(n2)CN(C(CCC(=O)NCC(O)CO)C(=O)O)CC1)NCC(O)CO (stereo unspecified) | 0.98
CCCCC1(CCCC)CN(c2ccccc2)c2cc(SC)c(OCC(=O)NC(C(=O)NC(CC)C(=O)O)c3ccc(O)cc3)cc2S(=O)(=O)N1 (stereo unspecified) | 0.01
